Measurements published in paper PMC7995829 (ACS chemical biology, 2020).
Where two headings read alike, the source gives them in different places.

Key:
BglX [1] = target: T1, BglX (Pseudomonas aeruginosa, UniProt Q9I311); assay: inhibition assay; assay type: biochemical; details: nonsubstrate, weak inhibitor
BglX [2] = target: T1, BglX; assay: inhibition assay; assay type: biochemical

Compound	Ki (BglX [1]) [mM]	Ki (BglX [2]) [mM]
OC1OC[C@@H](O[C@@H]2OC[C@@H](O[C@@H]3OC[C@@H](O)[C@H](O)[C@H]3O)[C@H](O)[C@H]2O)[C@H](O)[C@H]1O (stereo partly shown) [xylotriose]	> 50	
OC[C@H]1NC[C@H](O)[C@@H](O)[C@@H]1O [NOJ, 1-deoxynojirimycin]		4.4 ± 0.5
OC[C@H]1O[C@@H](O[C@H]2[C@H](O)[C@@H](O)C(O)O[C@@H]2CO)[C@H](O)[C@@H](O)[C@@H]1O (stereo partly shown) [cellobiose]	> 50	
OC[C@H]1O[C@@H](O[C@H]2[C@H](O)[C@@H](O)C(O)O[C@@H]2CO)[C@H](O)[C@@H](O)[C@H]1O (stereo partly shown) [lactose]	> 50	
